Assay results: PubChem BioAssay AID1259411 (Chemical Carcinogenesis Research Information System (CCRIS), 2018)
Calls of active or inactive are those of the source. The rule behind the calls is not given here.

Tested on: rodent carcinogenicity bioassays, tumor incidence
Assay: CCRIS carcinogenicity studies
Procedure, shortened: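 Archive of carcinogenicity, mutagenicity, tumor promotion and tumor inhibition results drawn from journals, NCI reports and other sources, expert-reviewed; covers 1985-2011 and is no longer updated.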

CC(O)c1ccccc1 (stereo unspecified)
carcinogen call (Species: MOUSE, Strain/Sex: B6C3F1/FEMALE, Route: GAVAGE, Dose: 0, 375, 750 MG/KG IN CORN OIL 5 D/WK FOR 103 WK (STUDY DURATION: 104 WK), Dose: 0, 375, 750 MG/KG IN CORN OIL 5 D/WK FOR 103 WK (STUDY DURATION: 104 WK)): inactive; negative
carcinogen call (Species: MOUSE, Strain/Sex: B6C3F1/MALE, Route: GAVAGE, Dose: 0, 375, 750 MG/KG IN CORN OIL 5 D/WK FOR 103 WK (STUDY DURATION: 104 WK), Dose: 0, 375, 750 MG/KG IN CORN OIL 5 D/WK FOR 103 WK (STUDY DURATION: 104 WK)): inactive; negative
carcinogen call (Species: RAT, Strain/Sex: F344/FEMALE, Route: GAVAGE, Dose: 0, 375, 750 MG/KG IN CORN OIL 5 D/WK FOR 103 WK (STUDY DURATION: 105 WK), Dose: 0, 375, 750 MG/KG IN CORN OIL 5 D/WK FOR 103 WK (STUDY DURATION: 105 WK)): inactive; negative
carcinogen call (Species: RAT, Strain/Sex: F344/MALE, Route: GAVAGE, Dose: 0, 375, 750 MG/KG IN CORN OIL 5 D/WK FOR 103 WK (STUDY DURATION: 105 WK), Dose: 0, 375, 750 MG/KG IN CORN OIL 5 D/WK FOR 103 WK (STUDY DURATION: 105 WK), Tumor Site: Type of Lesion: KIDNEY: TUBULAR CELL ADENOMA, TUBULAR CELL ADENOMA OR ADENOCARCINOMA): active; positive

Cc1ccc(C)c(OCCCC(C)(C)C(=O)O)c1
carcinogen call (Species: RAT, Strain/Sex: STRAIN-CD/MALE, Route: ORAL, Dose: 30, 300 MG/KG IN DIET FOR 2 YR, Tumor Site: Type of Lesion: LIVER: NEOPLASTIC NODULE, CARCINOMA, TESTES: INTERSTITIAL CELL TUMOR): active; positive

CC(O)CN(C)N=O (stereo unspecified)
carcinogen call (Species: HAMSTER, Strain/Sex: SYRIAN/FEMALE, Route: GAVAGE, Dose: 0, 1 MG IN 0.2 ML WATER 1/WK FOR 21 WK FOR A TOTAL DOSE OF 21 MG (STUDY DURATION: 45 WK), Tumor Site: Type of Lesion: LIVER: HEMANGIOSARCOMA OR HEMANGIOMA, LUNG: ALVEOLAR/BRONCHIOLAR ADENOMA, NASAL MUCOSA: CARCINOMA, Tumor Site: Type of Lesion: LIVER: HEMANGIOSARCOMA OR HEMANGIOMA, LUNG: ALVEOLAR/BRONCHIOLAR ADENOMA, NASAL MUCOSA: CARCINOMA): active; positive
carcinogen call (Species: HAMSTER, Strain/Sex: SYRIAN/FEMALE, Route: GAVAGE, Dose: 0, 5 MG IN 0.2 ML WATER FOR 4 WK THEN 2 MG 1/WK FOR 14 WK FOR A TOTAL DOSE OF 48 MG (STUDY DURATION: 45 WK), Tumor Site: Type of Lesion: LIVER: HEMANGIOSARCOMA, HEPATOCELLULAR ADENOMA, CHOLANGIOCELLULAR CARCINOMA, CHOLANGIOCELLULAR ADENOMA, PANCREAS: DUCTAL): active; positive
carcinogen call (Species: RAT, Strain/Sex: F344/FEMALE, Route: GAVAGE, Dose: 0, 4, 10 MG/WK FOR A TOTAL DOSE OF 0.6, 0.4 MMOL (STUDY DURATION: 50 WK), Dose: 0, 4, 10 MG/WK FOR A TOTAL DOSE OF 0.6, 0.4 MMOL (STUDY DURATION: 50 WK), Tumor Site: Type of Lesion: ESOPHAGUS: TUMOR, KIDNEY: TUMOR, THYROID: TUMOR, LUNG: TUMOR, Tumor Site: Type of Lesion: ESOPHAGUS: TUMOR, KIDNEY: TUMOR, THYROID: TUMOR, LUNG: TUMOR): active; positive
carcinogen call (Species: RAT, Strain/Sex: F344/MALE, Route: GAVAGE, Dose: 0, 4 MG/WK FOR A TOTAL DOSE OF 0.6 MMOL (STUDY DURATION: 50 WK), Tumor Site: Type of Lesion: ESOPHAGUS: TUMOR, NASAL MUCOSA: TUMOR): active; positive
carcinogen call (Species: RAT, Strain/Sex: WISTAR/MALE, Route: INTRAPERITONEAL, Dose: 0, 4.4, 8.8, 17.6 MG/KG IN 0.9% SALINE 1/WK FOR 12 WK (STUDY DURATION: 26 WK), Dose: 0, 4.4, 8.8, 17.6 MG/KG IN 0.9% SALINE 1/WK FOR 12 WK (STUDY DURATION: 26 WK), Tumor Site: Type of Lesion: NASAL CAVITY: CARCINOMA, PAPILLOMA): active; positive

CC(C)(c1ccc(O)cc1)c1ccc(O)cc1 (tested in a mixture with another compound)
carcinogen call (Species: MOUSE, Strain/Sex: CF-1/FEMALE, Route: DERMAL, Dose: 0, 1, 10% EPIKOTE 828 IN ACETONE (TOTAL DOSE 0.2 ML) 2/WK APPLIED TO DORSAL SKIN FOR DURATION OF STUDY (STUDY DURATION:, Dose: 0, 1, 10% EPIKOTE 828 IN ACETONE (TOTAL DOSE 0.2 ML) 2/WK APPLIED TO DORSAL SKIN FOR DURATION OF STUDY (STUDY DURATION:, Tumor Site: Type of Lesion: HEMATOPOIETIC SYSTEM: RETICULUM-CELL SARCOMA, LYMPHOBLASTIC LYMPHOSARCOMA): active; positive
carcinogen call (Species: MOUSE, Strain/Sex: CF-1/FEMALE, Route: DERMAL, Dose: 0, 1, 10% EPON 828 IN ACETONE (TOTAL DOSE 0.2 ML) 2/WK APPLIED TO DORSAL SKIN FOR DURATION OF STUDY (STUDY DURATION: 2 Y, Dose: 0, 1, 10% EPON 828 IN ACETONE (TOTAL DOSE 0.2 ML) 2/WK APPLIED TO DORSAL SKIN FOR DURATION OF STUDY (STUDY DURATION: 2 Y): inactive; negative
carcinogen call (Species: MOUSE, Strain/Sex: CF-1/MALE, Route: DERMAL, Dose: 0, 1, 10% EPIKOTE 828 IN ACETONE (TOTAL DOSE 0.2 ML) 2/WK APPLIED TO DORSAL SKIN FOR DURATION OF STUDY (STUDY DURATION:, Dose: 0, 1, 10% EPIKOTE 828 IN ACETONE (TOTAL DOSE 0.2 ML) 2/WK APPLIED TO DORSAL SKIN FOR DURATION OF STUDY (STUDY DURATION:): inactive; negative
carcinogen call (Species: MOUSE, Strain/Sex: CF-1/MALE, Route: DERMAL, Dose: 0, 1, 10% EPON 828 IN ACETONE (TOTAL DOSE 0.2 ML) 2/WK APPLIED TO DORSAL SKIN FOR DURATION OF STUDY (STUDY DURATION: 2 Y, Dose: 0, 1, 10% EPON 828 IN ACETONE (TOTAL DOSE 0.2 ML) 2/WK APPLIED TO DORSAL SKIN FOR DURATION OF STUDY (STUDY DURATION: 2 Y): inactive; negative

[CH3][Hg][O]C(C)=O
carcinogen call (Species: MOUSE, Strain/Sex: SWISS/FEMALE, Route: ORAL, Dose: 0, 5 PPM (HG) IN DRINKING WATER FOR 70 D THEN 1 PPM (HG) FOR DURATION OF STUDY (STUDY DURATION: LIFE SPAN)): inactive; negative
carcinogen call (Species: MOUSE, Strain/Sex: SWISS/MALE, Route: ORAL, Dose: 0, 5 PPM (HG) IN DRINKING WATER FOR 70 D THEN 1 PPM (HG) FOR DURATION OF STUDY (STUDY DURATION: LIFE SPAN)): inactive; negative

OO
carcinogen call (Species: MOUSE, Strain/Sex: C57BL/MALE,FEMALE, Route: ORAL, Dose: 0, 0.1%, 0.4% IN DRINKING WATER (STUDY DURATION: 108 WK), Dose: 0, 0.1%, 0.4% IN DRINKING WATER (STUDY DURATION: 108 WK), Tumor Site: Type of Lesion: DUODENUM: ADENOMA, ADENOCARCINOMA): active; positive

CCC1(c2ccccc2)C(=O)NC(=O)NC1=O
carcinogen call (Species: MOUSE, Strain/Sex: 6HF1/MALE, Route: ORAL, Dose: 0, 0.05% IN BASAL DIET FOR 104 WK (STUDY DURATION: 104 WK), Tumor Site: Type of Lesion: LIVER: TUMOR): active; positive

NC(=O)/C(=C\c1ccc([N+](=O)[O-])o1)c1ccco1
carcinogen call (Species: HAMSTER, Strain/Sex: SYRIAN/MALE, Route: ORAL, Dose: 0.25% IN DIET, Tumor Site: Type of Lesion: FORESTOMACH: PAPILLOMA, SQUAMOUS CELL CARCINOMA, BILE DUCT: ADENOMA): active; positive
carcinogen call (Species: MOUSE, Strain/Sex: CD-1/MALE,FEMALE, Route: ORAL, Dose: 0.4% IN DIET FOR 18 MO, Tumor Site: Type of Lesion: FORESTOMACH: PAPILLOMA, SQUAMOUS CELL CARCINOMA): active; positive
carcinogen call (Species: MOUSE, Strain/Sex: DDY/MALE, Route: ORAL, Dose: 0.25% IN DIET FOR 308 DAYS, Tumor Site: Type of Lesion: FORESTOMACH: SQUAMOUS CELL CARCINOMA): active; positive
carcinogen call (Species: MOUSE, Strain/Sex: ICR/MALE,FEMALE, Route: ORAL, Dose: 0.08, 0.4% IN DIET FOR 440 DAYS, Tumor Site: Type of Lesion: FORESTOMACH: PAPILLOMA, SQUAMOUS CELL CARCINOMA): active; positive
carcinogen call (Species: RAT, Strain/Sex: WISTAR/FEMALE, Route: ORAL, Dose: 0.08, 0.4% IN DIET FOR 18 MO, Tumor Site: Type of Lesion: MAMMARY GLAND: ADENOCARCINOMA, FORESTOMACH: PAPILLOMA): active; positive
carcinogen call (Species: RAT, Strain/Sex: WISTAR/MALE, Route: ORAL, Dose: 0.4% IN DIET FOR 18 MO, Tumor Site: Type of Lesion: FORESTOMACH: PAPILLOMA): active; positive

O=C(O)c1cc2ccccc2c(N=Nc2ccc3ccccc3c2S(=O)(=O)O)c1O
carcinogen call (Species: MOUSE, Strain/Sex: SWISS-WEBSTER/FEMALE, Route: DERMAL, Dose: 0, 1% IN 0.1 ML 0.1% SODIUM LAURYL SULFATE 1/WK FOR 18 MO (STUDY DURATION: 18 MO)): inactive; negative
carcinogen call (Species: MOUSE, Strain/Sex: SWISS-WEBSTER/MALE, Route: DERMAL, Dose: 0, 1% IN 0.1 ML 0.1% SODIUM LAURYL SULFATE 1/WK FOR 18 MO (STUDY DURATION: 18 MO)): inactive; negative
